In PubChem BioAssay AID2060908 (Molecular Pharmacology Branch, DTP, NCI, 2025):

Tested on: 186277-243-T-J2-PDC complex spheroids, viability
Assay: Anticancer human tumor 186277-243-T-J2-PDC patient-derived colon adenocarcinoma cell line growth inhibition [RAS]
Conditions: for viability, T/C: stronger effect = lower value
In short: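 Tumour cells grown as complex spheroids with HUVEC endothelial cells and mesenchymal stem cells, treated with RAS pathway inhibitor combinations. Each agent spans half-log steps from near clinical Cmax, or 10 microM where Cmax is unknown.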

[1] = curve of first compound, second compound 0.0316 µM
[2] = curve of first compound, second compound 0.1 µM
[3] = curve of first compound, second compound 0.316 µM
[4] = curve of first compound, second compound 1 µM
[5] = curve of first compound, second compound 3.16 µM
[6] = curve of first compound, second compound 10 µM
[7] = second compound 0.0316 µM, first compound 0.0316 µM
[8] = second compound 0.0316 µM, first compound 0.1 µM
[9] = second compound 0.0316 µM, first compound 0.316 µM
[10] = second compound 0.0316 µM, first compound 1 µM
[11] = second compound 0.1 µM, first compound 0.0316 µM
[12] = second compound 0.1 µM, first compound 0.1 µM
[13] = second compound 0.1 µM, first compound 0.316 µM
[14] = second compound 0.1 µM, first compound 1 µM
[15] = second compound 0.316 µM, first compound 0.0316 µM
[16] = second compound 0.316 µM, first compound 0.1 µM
[17] = second compound 0.316 µM, first compound 0.316 µM
[18] = second compound 0.316 µM, first compound 1 µM
[19] = second compound 1 µM, first compound 0.0316 µM
[20] = second compound 1 µM, first compound 0.1 µM
[21] = second compound 1 µM, first compound 0.316 µM
[22] = second compound 1 µM, first compound 1 µM
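Further: spheroids exposed to compounds for 7 days before viability read.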

With `Nc1ccn(C2OC(CO)C(O)C2(F)F)c(=O)n1` (centres undefined) + C#Cc1c(F)ccc2cc(O)cc(-c3ncc4c(N5CC6CCC(C5)N6)nc(OCC56CCCN5CC(F)C6)nc4c3F)c12 the IC50 [1] was less than 3.16 nM, the IC50 [2] was less than 3.16 nM and the IC50 [3] was less than 3.16 nM. For the same compound, the IC50 [4] was less than 3.16 nM, the IC50 [5] was less than 3.16 nM and the IC50 [6] was less than 3.16 nM. The viability, T/C (second compound 0.0316 µM, first compound 0.00316 µM) was 47%, the viability, T/C (second compound 0.0316 µM, first compound 0.01 µM) was 8.41% and the viability, T/C [7] was 7.36%. The viability, T/C [8] was 8.79%, the viability, T/C [9] was 6.46% and the viability, T/C [10] was 8.3%. It also gave a viability, T/C (second compound 0.1 µM, first compound 0.00316 µM) of 28.4%, a viability, T/C (second compound 0.1 µM, first compound 0.01 µM) of 8.66% and a viability, T/C [11] of 8.73%. For the same compound, the viability, T/C [12] was 6.07%, the viability, T/C [13] was 7.33% and the viability, T/C [14] was 7.04%. It also gave a viability, T/C (second compound 0.316 µM, first compound 0.00316 µM) of 14.2%, a viability, T/C (second compound 0.316 µM, first compound 0.01 µM) of 8.55% and a viability, T/C [15] of 7.4%. The viability, T/C [16] was 7.69%, the viability, T/C [17] was 5.4% and the viability, T/C [18] was 7.34%. For the same compound, the viability, T/C (second compound 1 µM, first compound 0.00316 µM) was 9.92%, the viability, T/C (second compound 1 µM, first compound 0.01 µM) was 7.97% and the viability, T/C [19] was 7.96%. The viability, T/C [20] was 6.96%, the viability, T/C [21] was 7.3% and the viability, T/C [22] was 5.65%. For the same compound, the viability, T/C (second compound 3.16 µM, first compound 0.00316 µM) was 7.24%, the viability, T/C (second compound 3.16 µM, first compound 0.01 µM) was 6.5% and the viability, T/C (second compound 3.16 µM, first compound 0.0316 µM) was 6.06%. For the same compound, the viability, T/C (second compound 3.16 µM, first compound 0.1 µM) was 5.7%, the viability, T/C (second compound 3.16 µM, first compound 0.316 µM) was 4.35% and the viability, T/C (second compound 3.16 µM, first compound 1 µM) was 5.91%. It also gave a viability, T/C (second compound 10 µM, first compound 0.00316 µM) of 8.28%, a viability, T/C (second compound 10 µM, first compound 0.01 µM) of 7.76% and a viability, T/C (second compound 10 µM, first compound 0.0316 µM) of 5.58%. For the same compound, the viability, T/C (second compound 10 µM, first compound 0.1 µM) was 5.8%, the viability, T/C (second compound 10 µM, first compound 0.316 µM) was 5.91% and the viability, T/C (second compound 10 µM, first compound 1 µM) was 6.36%.
In the case of `CC1(O)CCCC1n1c(=O)c(C(F)F)cc2cnc(NC3CCN(S(C)(=O)=O)CC3)nc21` (centres undefined) + C=CC(=O)N1CCN(c2nc(OCC3CCCN3C)nc3c(F)c(-c4nc(N)cc(C)c4C(F)(F)F)c(Cl)cc23)C(C)C1, the IC50 (curve of first compound, second compound 0.00316 µM) is reported as 4050 nM, the IC50 (curve of first compound, second compound 0.01 µM) is reported as 4920 nM and the IC50 [1] is reported as 4810 nM. For the same compound, the IC50 [2] was 5150 nM, the IC50 [3] was 4830 nM and the IC50 [4] was 4940 nM. It also gave a viability, T/C (second compound 0.00316 µM, first compound 0.0316 µM) of 95.5%, a viability, T/C (second compound 0.00316 µM, first compound 0.1 µM) of 113% and a viability, T/C (second compound 0.00316 µM, first compound 0.316 µM) of 101%. For the same compound, the viability, T/C (second compound 0.00316 µM, first compound 1 µM) was 99.3%, the viability, T/C (second compound 0.00316 µM, first compound 3.16 µM) was 63% and the viability, T/C (second compound 0.00316 µM, first compound 10 µM) was 2.71%. The viability, T/C (second compound 0.01 µM, first compound 0.0316 µM) was 92.8%, the viability, T/C (second compound 0.01 µM, first compound 0.1 µM) was 96.8% and the viability, T/C (second compound 0.01 µM, first compound 0.316 µM) was 93.5%. For the same compound, the viability, T/C (second compound 0.01 µM, first compound 1 µM) was 96.8%, the viability, T/C (second compound 0.01 µM, first compound 3.16 µM) was 79.3% and the viability, T/C (second compound 0.01 µM, first compound 10 µM) was 2.97%. The viability, T/C [7] was 101%, the viability, T/C [8] was 135% and the viability, T/C [9] was 87.8%. The viability, T/C [10] was 107%, the viability, T/C (second compound 0.0316 µM, first compound 3.16 µM) was 77.5% and the viability, T/C (second compound 0.0316 µM, first compound 10 µM) was 2.9%. It also gave a viability, T/C [11] of 95.3%, a viability, T/C [12] of 109% and a viability, T/C [13] of 105%. It also gave a viability, T/C [14] of 89.9%, a viability, T/C (second compound 0.1 µM, first compound 3.16 µM) of 87% and a viability, T/C (second compound 0.1 µM, first compound 10 µM) of 2.79%. The viability, T/C [15] was 91.3%, the viability, T/C [16] was 118% and the viability, T/C [17] was 88.1%. For the same compound, the viability, T/C [18] was 84.1%, the viability, T/C (second compound 0.316 µM, first compound 3.16 µM) was 81.8% and the viability, T/C (second compound 0.316 µM, first compound 10 µM) was 2%. The viability, T/C [19] was 117%, the viability, T/C [20] was 123% and the viability, T/C [21] was 94.9%. For the same compound, the viability, T/C [22] was 115%, the viability, T/C (second compound 1 µM, first compound 3.16 µM) was 80.7% and the viability, T/C (second compound 1 µM, first compound 10 µM) was 1.52%.
`CC1(C)CCC(Nc2ncc(C(F)(F)F)c(-c3c[nH]c4c(P(C)(C)=O)c(C#N)ccc34)n2)CN1` (centres undefined) + C#Cc1c(F)ccc2cc(O)cc(-c3ncc4c(N5CC6CCC(C5)N6)nc(OCC56CCCN5CC(F)C6)nc4c3F)c12 showed an IC50 [1] of 69.8 nM, an IC50 [2] of 12.1 nM and an IC50 [3] of less than 0.949 nM. For the same compound, the IC50 [4] was less than 0.949 nM, the IC50 [5] was less than 0.949 nM and the IC50 [6] was less than 0.949 nM. The viability, T/C (second compound 0.0316 µM, first compound 0.000949 µM) was 91.9%, the viability, T/C (second compound 0.0316 µM, first compound 0.003 µM) was 80.4% and the viability, T/C (second compound 0.0316 µM, first compound 0.00949 µM) was 60.4%. For the same compound, the viability, T/C (second compound 0.0316 µM, first compound 0.03 µM) was 55.8%, the viability, T/C (second compound 0.0316 µM, first compound 0.0949 µM) was 51.8% and the viability, T/C (second compound 0.0316 µM, first compound 0.3 µM) was 40.9%. The viability, T/C (second compound 0.1 µM, first compound 0.000949 µM) was 50%, the viability, T/C (second compound 0.1 µM, first compound 0.003 µM) was 67.4% and the viability, T/C (second compound 0.1 µM, first compound 0.00949 µM) was 55.4%. It also gave a viability, T/C (second compound 0.1 µM, first compound 0.03 µM) of 29%, a viability, T/C (second compound 0.1 µM, first compound 0.0949 µM) of 34.5% and a viability, T/C (second compound 0.1 µM, first compound 0.3 µM) of 26.1%. For the same compound, the viability, T/C (second compound 0.316 µM, first compound 0.000949 µM) was 27.9%, the viability, T/C (second compound 0.316 µM, first compound 0.003 µM) was 29.9% and the viability, T/C (second compound 0.316 µM, first compound 0.00949 µM) was 23%. It also gave a viability, T/C (second compound 0.316 µM, first compound 0.03 µM) of 15.9%, a viability, T/C (second compound 0.316 µM, first compound 0.0949 µM) of 15.2% and a viability, T/C (second compound 0.316 µM, first compound 0.3 µM) of 17.2%. For the same compound, the viability, T/C (second compound 1 µM, first compound 0.000949 µM) was 15.6%, the viability, T/C (second compound 1 µM, first compound 0.003 µM) was 16.5% and the viability, T/C (second compound 1 µM, first compound 0.00949 µM) was 13%. It also gave a viability, T/C (second compound 1 µM, first compound 0.03 µM) of 13.9%, a viability, T/C (second compound 1 µM, first compound 0.0949 µM) of 12.4% and a viability, T/C (second compound 1 µM, first compound 0.3 µM) of 11.5%. It also gave a viability, T/C (second compound 3.16 µM, first compound 0.000949 µM) of 12.4%, a viability, T/C (second compound 3.16 µM, first compound 0.003 µM) of 11.7% and a viability, T/C (second compound 3.16 µM, first compound 0.00949 µM) of 11%. The viability, T/C (second compound 3.16 µM, first compound 0.03 µM) was 12.5%, the viability, T/C (second compound 3.16 µM, first compound 0.0949 µM) was 11.2% and the viability, T/C (second compound 3.16 µM, first compound 0.3 µM) was 8.62%. The viability, T/C (second compound 10 µM, first compound 0.000949 µM) was 8.95%, the viability, T/C (second compound 10 µM, first compound 0.003 µM) was 9.05% and the viability, T/C (second compound 10 µM, first compound 0.00949 µM) was 7.62%. It also gave a viability, T/C (second compound 10 µM, first compound 0.03 µM) of 6.45%, a viability, T/C (second compound 10 µM, first compound 0.0949 µM) of 9.73% and a viability, T/C (second compound 10 µM, first compound 0.3 µM) of 7.54%.
With `NC1c2ccccc2OC12CCN(c1cnc3c(N4CCCc5ncccc54)n[nH]c3n1)CC2` (centres undefined) the viability, T/C (compound 0.316 µM) was 99.6% [middle of 4 runs], the viability, T/C (compound 10 µM) was 73.3% [middle of 4 runs] and the IC50 (curve of compound) was greater than 10000 nM.
